10 molecules from patent US20090143279A1 (priority 2007, published 2009) can be followed below.

In assay [1] the test system is reactive oxygen species. The class given is cell-based, mouse. Particulars: for ROS (composite Z-score): normalized score vs mock-treated (DMSO) wells.
Assay [2] deals with mtOXPHOS transcripts. The class given is cell-based, mouse. The conditions noted are these: for mitoOX (composite Z-score): normalized score vs mock-treated (DMSO) wells.
In assay [3] the test system is C2C12 myotubes. The conditions noted are these: for Viability (composite Z-score): normalized score vs mock-treated (DMSO) wells.
The subject of assay [4] is cellular dehydrogenase activity. Particulars: for MTT (composite Z-score): normalized score vs mock-treated (DMSO) wells.
Assay [5] concerns nuOXPHOS transcripts. It counts as cell-based, mouse. The conditions noted are these: for nucOX (composite Z-score): normalized score vs mock-treated (DMSO) wells.
In assay [6] the test system is OXPHOS gene expression. It counts as cell-based, mouse. Particulars: for GE-HTS (composite Z-score): normalized score vs mock-treated (DMSO) wells.
For assay [7], the system named is cytochrome c. The class given is cell-based, mouse. The conditions noted are these: for cyt c (composite Z-score): normalized score vs mock-treated (DMSO) wells.
The subject of assay [8] is mitochondrial membrane potential. It counts as cell-based, mouse. The conditions noted are these: for ΔΨm (composite Z-score): normalized score vs mock-treated (DMSO) wells.
Where [9] appears, read: composite Z-score vs DMSO wells, Conc 20 μM.
[10] abbreviates: normalized composite Z-score vs mock-treated (DMSO) wells, Conc 20 μM.
The mark [11] stands for this setting: composite Z-score vs DMSO, Conc 20 μM.
Setting [12] is: composite Z-score vs mock-treated (DMSO) wells, concentration of each compound in μM.

Where two headings read alike, the source gives them in different places.

Chain of cytochrome c (P62897 whole entry): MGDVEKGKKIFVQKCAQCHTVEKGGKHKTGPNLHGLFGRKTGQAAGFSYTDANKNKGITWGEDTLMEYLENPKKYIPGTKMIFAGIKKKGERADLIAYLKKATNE

`CCCOc1ccccc1-c1nc2nn[nH]c2c(=O)[nH]1` [zaprinast] displayed an ROS in assay [1] (setting [9]) of −0.482. The molecule also yielded a mitoOX in assay [2] (setting [9]) of −0.234. Also, in assay [3] (setting [9]), the Viability came to 0.602. In addition, in assay [4] (setting [9]), the MTT is −1.175. Also, the nucOX in assay [5] (setting [9]) turned out to be 0.220. Further, the GE-HTS in assay [6] (setting [9]) was 0.076. The cyt c in assay [7] (setting [9]) was 0.226. In assay [8] (setting [9]), the ΔΨm was −0.347.

In turn, `CC(C)(O)[C@H]1CC[C@]2(C)[C@H]3CC[C@@H]4[C@@]5(C)CCCC(C)(C)[C@@H]5[C@@H](O)C[C@@]4(C)[C@]3(C)CC[C@@H]12` [zeorin] registered an ROS in assay [1] (setting [10]) of 0.166. Besides, in assay [2] (setting [10]), the mitoOX stood at 0.571. In addition, in assay [3] (setting [10]), the Viability is 0.495. The same molecule displayed an MTT in assay [4] (setting [10]) of −0.387. In assay [5] (setting [10]), this molecule yielded a nucOX of 0.278. This molecule gave a GE-HTS in assay [6] (setting [10]) of 0.381. In addition, the cyt c in assay [7] (setting [10]) turned out to be 0.088. In assay [8] (setting [10]), the ΔΨm is on record as −0.941.

Consider (−)-asarinin, for which the ROS in assay [1] (setting [11]) is on record as −0.229. The molecule also yielded a mitoOX in assay [2] (setting [11]) of −1.858. Besides, in assay [3] (setting [11]), the Viability is listed as −0.632. The MTT in assay [4] (setting [11]) is given as −0.505. The nucOX in assay [5] (setting [11]) was −0.726. Also, in assay [6] (setting [11]), the GE-HTS is listed as −1.167. Further, the cyt c in assay [7] (setting [11]) is listed as 0.607. In assay [8] (setting [11]), this molecule showed a ΔΨm of −0.439.

On to avermectin B1, for which, in assay [1] (setting [11]), the ROS came out at 2.442. Besides, the mitoOX in assay [2] (setting [11]) is 0.295. For the same molecule, the Viability in assay [3] (setting [11]) is given as 0.129. In addition, in assay [4] (setting [11]), the MTT is given as −0.284. Also, the nucOX in assay [5] (setting [11]) worked out at 0.170. In assay [6] (setting [11]), the GE-HTS was 0.198. The cyt c in assay [7] (setting [11]) is listed as 0.116. In addition, the ΔΨm in assay [8] (setting [11]) was −0.336.

Turning to avocatin A, in assay [1] (setting [12]), the ROS came out at 0.404. The same molecule yielded a mitoOX in assay [2] (setting [12]) of −1.140. The Viability in assay [3] (setting [12]) came to 0.133. In assay [4] (setting [12]), the MTT was −0.249. The nucOX in assay [5] (setting [12]) is on record as −1.066. The GE-HTS in assay [6] (setting [12]) was −1.145. The cyt c in assay [7] (setting [12]) was determined as 0.849. This molecule came in with a ΔΨm in assay [8] (setting [12]) of −0.057.

On to avocatin B, for which, in assay [1] (setting [12]), the ROS stood at 1.229. The mitoOX in assay [2] (setting [12]) was −0.852. The same molecule showed a Viability in assay [3] (setting [12]) of −0.869. This molecule also yielded an MTT in assay [4] (setting [12]) of −1.119. In assay [5] (setting [12]), this molecule returned a nucOX of −0.863. In assay [6] (setting [12]), this molecule registered a GE-HTS of −0.935. In assay [7] (setting [12]), the cyt c was found to be 0.710. Further, the ΔΨm in assay [8] (setting [12]) is given as 0.024.

In the case of beta-escin, the “ROS (composite Z-score)” value in assay [1] (Conc 20 μM) is −3.107. In addition, the “mitoOX (composite Z-score)” value in assay [2] (Conc 20 μM) is −0.745. In addition, the “Viability (composite Z-score)” value in assay [3] (Conc 20 μM) is on record as −5.049. Also, in assay [4] (Conc 20 μM), the “MTT (composite Z-score)” value is recorded as −5.088. In assay [5] (Conc 20 μM), the “nucOX (composite Z-score)” value was −0.883. Further, the “GE-HTS (composite Z-score)” value in assay [6] (Conc 20 μM) is listed as −0.914. In addition, in assay [7] (Conc 20 μM), the “cyt c (composite Z-score)” value is recorded as −5.117. The “ΔΨm (composite Z-score)” value in assay [8] (Conc 20 μM) is on record as −3.416.

beta-sitosterol returned an ROS in assay [1] (setting [11]) of 0.049. The mitoOX in assay [2] (setting [11]) was found to be 0.218. The molecule further yielded a Viability in assay [3] (setting [11]) of −0.768. In assay [4] (setting [11]), this molecule showed an MTT of −1.974. Besides, in assay [5] (setting [11]), the nucOX was determined as 0.046. In assay [6] (setting [11]), this molecule returned a GE-HTS of 0.098. Also, the cyt c in assay [7] (setting [11]) was determined as 0.061. In assay [8] (setting [11]), this molecule gave a ΔΨm of −0.679.

caryophyllene: in assay [1] (Conc 20 μM), the “ROS (composite Z-score)” value was 0.996. Also, the “mitoOX (composite Z-score)” value in assay [2] (Conc 20 μM) is −0.100. The “Viability (composite Z-score)” value in assay [3] (Conc 20 μM) is −0.255. For the same molecule, in assay [4] (Conc 20 μM), the “MTT (composite Z-score)” value is given as −0.525. Besides, the “nucOX (composite Z-score)” value in assay [5] (Conc 20 μM) turned out to be 0.216. Further, the “GE-HTS (composite Z-score)” value in assay [6] (Conc 20 μM) was 0.119. In addition, the “cyt c (composite Z-score)” value in assay [7] (Conc 20 μM) was −0.121. The “ΔΨm (composite Z-score)” value in assay [8] (Conc 20 μM) was 1.045.

For colistin, the ROS in assay [1] (setting [12]) is 0.501. The molecule also showed a mitoOX in assay [2] (setting [12]) of −0.939. Moreover, the Viability in assay [3] (setting [12]) was determined as 0.940. Further, the MTT in assay [4] (setting [12]) is given as −1.283. The molecule also displayed a nucOX in assay [5] (setting [12]) of −0.016. Further, the GE-HTS in assay [6] (setting [12]) is given as −0.341. In assay [7] (setting [12]), this molecule had a cyt c of 0.409. In assay [8] (setting [12]), this molecule showed a ΔΨm of −0.746.
